PMC10384010, “Chromatographic Data in Statistical Analysis of BBB Permeability Indices” (Membranes, 2023)
Like-named read-outs stand apart in the source and are kept apart here.

Experiments:
[1] = Normal-phase TLC on silica gel 60 F254 (Rf); assay type: physicochemical; details: water:methanol:acetonitrile 60:20:20, ammonium acetate pH 7.4
Description: (§1) The purity of the isolated substances was checked by TLC chromatography and densitometric scanning.
(§2) APIs were subjected to chromatographic in column (HPLC) and thin layer (TLC) formats. TLC chromatography was carried out on 20 cm × 20 cm glass plates by Merck, covered with silica gel and the addition of a fluorescent indicator. Merck TLC silica gel 60 F254 was used for the normal phase (NP). In the reverse phase (RP), RP-2 silanized plates were used (Merck TLC Silica gel 60 RP-2 F254, silanized). The mobile phase was buffered with ammonium acetate to pH 7.4 (LACH-NER, ammonium acetate).
(§3) Plates, after developing the chromatograms, were scanned using a densitometer (Desaga CD 60) with an analytical wavelength selected individually for drugs. The values of Rf (molecular descriptors: NP, RP) were determined.

[2] = entering the CNS / not entering the CNS; ref Drugbank [36]; cited from earlier work
[3] = cited from earlier work
[4] = Reversed-phase TLC on RP-2 silanized plates (Rf); assay type: physicochemical; details: silica gel 60 RP-2 F254 silanized; water:methanol:acetonitrile 60:20:20, ammonium acetate pH 7.4
Description: as §1, §2, §3

[5] = cited from earlier work; remark: listed apart in the source
[6] = HPLC on IAM (immobilized artificial membrane) column, retention factor; assay type: physicochemical; details: IAM.PC.DD.2 column; for k(IAM) retention factor: 10 mM phosphate buffer pH 7.4:acetonitrile 80:20; for logkIAM: logarithm of retention factor, phosphate buffer pH 7.4:acetonitrile 80:20
Description: Chromatographic data also came from an experiment with a HPLC IAM (immobilized artificial membrane) column (Regis Technologies Inc.: IAM.PC.DD.2, 10 µm; 4.6 mm × 10 mm). The column contains a standard membrane consisting of a phospholipid bilayer. Organic solvents (acetonitrile and methanol) and water (J.T. Baker HPLC) were used in HPLC. Sigma phosphate buffered saline tablets were used to prepare the phosphate buffer. The mobile phase was a mixture of 10 mM phosphate buffer at pH 7.4 and acetonitrile in the ratio of 80:20 (v/v) [35]. The mobile phase flow was set at 0.5 mL/min; detection was carried out with a UV–Vis detector. The obtained values of the retention factor (k IAM) were transformed into a logarithmic form and entered into the statistical analysis (descriptor: log k IAM).

[7] = plasma protein binding, given as fraction, ref Drugbank

CN(C)CCC=C1c2ccccc2CCc2ccccc21 [amitriptyline]
NP (Rf from NP TLC plate) [1]: 0.32 | CNS+/- [2]: 1 | Kp,uu,brain (unbound brain-to-plasma drug partition coefficient) [3]: 1.33 | RP (Rf from RP-2 TLC plate) [4]: 0.67

CN(C)CCC=C1c2ccccc2COc2ccccc21 [doxepin]
NP (Rf from NP TLC plate) [1]: 0.3 | PB (protein binding) [5, 7]: 0.755 | CNS+/- [2]: 1 | Kp,uu,brain (unbound brain-to-plasma drug partition coefficient) [3]: 3.11

CN1C[C@H](C(=O)N[C@]2(C)O[C@@]3(O)[C@@H]4CCCN4C(=O)[C@H](Cc4ccccc4)N3C2=O)C[C@@H]2c3cccc4[nH]cc(c34)C[C@H]21 [dihydroergotamine]
NP (Rf from NP TLC plate) [1]: 0.72 | PB (protein binding) ([5]; plasma): 0.93 | CNS+/- [2]: 0 | Kp,uu,brain (unbound brain-to-plasma drug partition coefficient) ([3]; in vivo): 0.02 | RP (Rf from RP-2 TLC plate) [4]: 0.78

Cc1ncc2n1-c1ccc(Cl)cc1C(c1ccccc1F)=NC2 [midazolam]
NP (Rf from NP TLC plate) [1]: 0.82 | k(IAM) retention factor [6]: 5.69 | logkIAM [6]: 0.76 | CNS+/- [2]: 1 | Kp,uu,brain (unbound brain-to-plasma drug partition coefficient) [3]: 1.08 | RP (Rf from RP-2 TLC plate) [4]: 0.66

NC(=O)N1c2ccccc2C=Cc2ccccc21 [carbamazepine]
NP (Rf from NP TLC plate) [1]: 0.95 | k(IAM) retention factor [6]: 1.50 | logkIAM [6]: 0.18 | CNS+/- [2]: 1 | Kp,uu,brain (unbound brain-to-plasma drug partition coefficient) [3]: 0.76 | RP (Rf from RP-2 TLC plate) [4]: 0.83

CN1CCN(C2=Nc3cc(Cl)ccc3Nc3ccccc32)CC1 [clozapine]
NP (Rf from NP TLC plate) [1]: 0.45 | k(IAM) retention factor [6]: 50.94 | logkIAM [6]: 1.71 | PB (protein binding) [5, 7]: 0.99 | Kp,uu,brain (unbound brain-to-plasma drug partition coefficient) [3]: 3.83

CSc1ccc2c(c1)N(CCC1CCCCN1C)c1ccccc1S2 (stereo not shown) [thioridazine]
NP (Rf from NP TLC plate) [1]: 0.47 | k(IAM) retention factor [6]: 47.61 | logkIAM [6]: 1.68 | CNS+/- [2]: 1 | Kp,uu,brain (unbound brain-to-plasma drug partition coefficient) [3]: 3.5 | RP (Rf from RP-2 TLC plate) [4]: 0.4

O=C(CCCN1CCC(O)(c2ccc(Cl)cc2)CC1)c1ccc(F)cc1 [haloperidol]
NP (Rf from NP TLC plate) [1]: 0.66 | k(IAM) retention factor [6]: 23.74 | logkIAM [6]: 1.38 | PB (protein binding) [5, 7]: 0.92 | Kp,uu,brain (unbound brain-to-plasma drug partition coefficient) [3]: 1.77 | RP (Rf from RP-2 TLC plate) [4]: 0.61

CNCCC(Oc1ccc(C(F)(F)F)cc1)c1ccccc1 (stereo not shown) [fluoxetine]
NP (Rf from NP TLC plate) [1]: 0.68 | k(IAM) retention factor [6]: 66.64 | logkIAM [6]: 1.82 | PB (protein binding) [5, 7]: 0.945 | Kp,uu,brain (unbound brain-to-plasma drug partition coefficient) [3]: 5.23 | RP (Rf from RP-2 TLC plate) [4]: 0.54

CN1CCN2c3ncccc3Cc3ccccc3C2C1 (stereo not shown) [mirtazapine]
NP (Rf from NP TLC plate) [1]: 0.39 | k(IAM) retention factor [6]: 5.83 | logkIAM [6]: 0.77 | CNS+/- [2]: 1 | Kp,uu,brain (unbound brain-to-plasma drug partition coefficient) [3]: 3.85 | RP (Rf from RP-2 TLC plate) [4]: 0.58

CCOC(=O)[C@H](CCc1ccccc1)N[C@@H](C)C(=O)N1CCC[C@H]1C(=O)O [enalapril]
NP (Rf from NP TLC plate) [1]: 0.33 | k(IAM) retention factor [6]: 0.05 | logkIAM [6]: -1.29 | PB (protein binding) [5, 7]: 0.55 | CNS+/- [2]: 0 | RP (Rf from RP-2 TLC plate) [4]: 0.6

C[C@H]1c2cccc(O)c2C(=O)C2=C(O)[C@]3(O)C(=O)C(C(N)=O)=C(O)[C@@H](N(C)C)[C@@H]3[C@@H](O)[C@@H]21 [doxycycline]
NP (Rf from NP TLC plate) [1]: 0.06 | k(IAM) retention factor [6]: 1.76 | logkIAM [6]: 0.24 | PB (protein binding) [5, 7]: 0.9 | CNS+/- [2]: 0 | RP (Rf from RP-2 TLC plate) [4]: 0.08

CN/C(=N/CCSCc1nc[nH]c1C)NC#N [cimetidine]
NP (Rf from NP TLC plate) [1]: 0.64 | k(IAM) retention factor [6]: 0.26 | logkIAM [6]: -0.58 | PB (protein binding) [5, 7]: 0.17 | CNS+/- [2]: 0 | RP (Rf from RP-2 TLC plate) [4]: 0.88

COc1ccnc(C[S+]([O-])c2nc3ccc(OC(F)F)cc3[nH]2)c1OC (stereo not shown) [pantoprazole]
NP (Rf from NP TLC plate) [1]: 0.93 | k(IAM) retention factor [6]: 2.19 | logkIAM [6]: 0.34 | PB (protein binding) [5, 7]: 0.98 | CNS+/- [2]: 0 | RP (Rf from RP-2 TLC plate) [4]: 0.85

C[C@](N)(Cc1ccc(O)c(O)c1)C(=O)O [methyldopa]
NP (Rf from NP TLC plate) [1]: 0.38 | k(IAM) retention factor [6]: 0.10 | logkIAM [6]: -1.02 | PB (protein binding) [5, 7]: 0.2 | CNS+/- [2]: 0 | RP (Rf from RP-2 TLC plate) [4]: 0.85

CN1CCC(=C2c3ccccc3CC(=O)c3sccc32)CC1 [ketotifen]
NP (Rf from NP TLC plate) [1]: 0.34 | k(IAM) retention factor [6]: 22.04 | logkIAM [6]: 1.34 | PB (protein binding) [5, 7]: 0.75 | CNS+/- [2]: 1 | RP (Rf from RP-2 TLC plate) [4]: 0.75

CO/N=C(\C(=O)N[C@@H]1C(=O)N2C(C(=O)O)=C(COC(N)=O)CS[C@H]12)c1ccco1 [cefuroxime]
NP (Rf from NP TLC plate) [1]: 0.97 | k(IAM) retention factor [6]: 1.69 | logkIAM [6]: 0.23 | PB (protein binding) [5, 7]: 0.5 | CNS+/- [2]: 0 | RP (Rf from RP-2 TLC plate) [4]: 0.88

Clc1cccc(Cl)c1N=C1NCCN1 [clonidine]
NP (Rf from NP TLC plate) [1]: 0.49 | k(IAM) retention factor [6]: 2.83 | logkIAM [6]: 0.45 | PB (protein binding) [5, 7]: 0.3 | CNS+/- [2]: 1 | RP (Rf from RP-2 TLC plate) [4]: 0.73

O=C1CN=C(c2ccccn2)c2cc(Br)ccc2N1 [bromazepam]
NP (Rf from NP TLC plate) [1]: 0.87 | k(IAM) retention factor [6]: 2.21 | logkIAM [6]: 0.34 | PB (protein binding) [5, 7]: 0.7 | CNS+/- [2]: 1 | RP (Rf from RP-2 TLC plate) [4]: 0.83

CN(C)CCc1c[nH]c2ccc(Cn3cncn3)cc12 [rizatriptan]
NP (Rf from NP TLC plate) [1]: 0.2 | k(IAM) retention factor [6]: 2.53 | logkIAM [6]: 0.40 | CNS+/- [2]: 1 | Kp,uu,brain (unbound brain-to-plasma drug partition coefficient) [3]: 0.04

NCC1(CC(=O)O)CCCCC1 [gabapentin]
PB (protein binding) [5, 7]: 0.03 | Kp,uu,brain (unbound brain-to-plasma drug partition coefficient) [3]: 0.44

CN(C)CCCN1c2ccccc2Sc2ccc(Cl)cc21 [chlorpromazine]
NP (Rf from NP TLC plate) [1]: 0.43 | k(IAM) retention factor [6]: 58.85 | logkIAM [6]: 1.77 | PB (protein binding) [5, 7]: 0.9 | Kp,uu,brain (unbound brain-to-plasma drug partition coefficient) [3]: 3.41 | RP (Rf from RP-2 TLC plate) [4]: 0.49

Nc1nnc(-c2cccc(Cl)c2Cl)c(N)n1 [lamotrigine]
NP (Rf from NP TLC plate) [1]: 0.89 | k(IAM) retention factor [6]: 0.71 | logkIAM [6]: -0.15 | Kp,uu,brain (unbound brain-to-plasma drug partition coefficient) [3]: 4.86 | RP (Rf from RP-2 TLC plate) [4]: 0.87

COc1ccc(C(CN(C)C)C2(O)CCCCC2)cc1 (stereo not shown) [venlafaxine]
k(IAM) retention factor [6]: 8.25 | logkIAM [6]: 0.92 | PB (protein binding) [5, 7]: 0.27 | Kp,uu,brain (unbound brain-to-plasma drug partition coefficient) [3]: 1.91

CC(=O)Oc1ccccc1C(=O)O [acetylsalicylic acid]
NP (Rf from NP TLC plate) [1]: 0.89 | k(IAM) retention factor [6]: 0.03 | logkIAM [6]: -1.52 | PB (protein binding) [5, 7]: 0.995 | CNS+/- [2]: 1 | RP (Rf from RP-2 TLC plate) [4]: 0.98

CCC[C@H](N[C@@H](C)C(=O)N1[C@H](C(=O)O)C[C@@H]2CCCC[C@@H]21)C(=O)OCC [perindopril]
NP (Rf from NP TLC plate) [1]: 0.47 | k(IAM) retention factor [6]: 0.18 | logkIAM [6]: -0.76 | PB (protein binding) [5, 7]: 0.15 | CNS+/- [2]: 0 | RP (Rf from RP-2 TLC plate) [4]: 0.57

CC(CN1c2ccccc2Sc2ccccc21)N(C)C (stereo not shown) [promethazine]
NP (Rf from NP TLC plate) [1]: 0.43 | k(IAM) retention factor [6]: 14.96 | logkIAM [6]: 1.17 | PB (protein binding) [5, 7]: 0.93 | CNS+/- [2]: 1 | RP (Rf from RP-2 TLC plate) [4]: 0.49
